Laboratory results from patent publication US6673840B1, “Use of lipoxygenase metabolite of arachidonic acid and its derivatives in capsaicin-channel agonist” (priority 1998, dated 2004).
Entries after “also recorded” stand apart in the source; their conditions may differ.

Columns and labels:
CAP channel [1] = molecular target: T1, CAP channel (Rattus norvegicus, UniProt O35433); assay: single channel current recording with patch clamp technique, inside-out membrane patches of cultured sensory neurons; type: cell-based; conditions: for Hill coefficient: concentration-response curve of channel activation; for amplitude of the single channel currents: membrane potential of 60 mV; for relative agonistic potency (Po as percentage of Po at 0.5 μM CAP): metabolites at 10~20 μM; for generation of single channel currents (activation of CAP channel): applied to intracellular side of membrane patch, CAP 0.5 μM, 12-HPETE 2 μM
T1 construct: administered at an amount of 10˜20 μM to the membrane patches of cultured sensory neurons; endogenous in cells; host or cells: cultured sensory neurons (inside-out membrane patches)
T1 sequence (O35433 whole entry): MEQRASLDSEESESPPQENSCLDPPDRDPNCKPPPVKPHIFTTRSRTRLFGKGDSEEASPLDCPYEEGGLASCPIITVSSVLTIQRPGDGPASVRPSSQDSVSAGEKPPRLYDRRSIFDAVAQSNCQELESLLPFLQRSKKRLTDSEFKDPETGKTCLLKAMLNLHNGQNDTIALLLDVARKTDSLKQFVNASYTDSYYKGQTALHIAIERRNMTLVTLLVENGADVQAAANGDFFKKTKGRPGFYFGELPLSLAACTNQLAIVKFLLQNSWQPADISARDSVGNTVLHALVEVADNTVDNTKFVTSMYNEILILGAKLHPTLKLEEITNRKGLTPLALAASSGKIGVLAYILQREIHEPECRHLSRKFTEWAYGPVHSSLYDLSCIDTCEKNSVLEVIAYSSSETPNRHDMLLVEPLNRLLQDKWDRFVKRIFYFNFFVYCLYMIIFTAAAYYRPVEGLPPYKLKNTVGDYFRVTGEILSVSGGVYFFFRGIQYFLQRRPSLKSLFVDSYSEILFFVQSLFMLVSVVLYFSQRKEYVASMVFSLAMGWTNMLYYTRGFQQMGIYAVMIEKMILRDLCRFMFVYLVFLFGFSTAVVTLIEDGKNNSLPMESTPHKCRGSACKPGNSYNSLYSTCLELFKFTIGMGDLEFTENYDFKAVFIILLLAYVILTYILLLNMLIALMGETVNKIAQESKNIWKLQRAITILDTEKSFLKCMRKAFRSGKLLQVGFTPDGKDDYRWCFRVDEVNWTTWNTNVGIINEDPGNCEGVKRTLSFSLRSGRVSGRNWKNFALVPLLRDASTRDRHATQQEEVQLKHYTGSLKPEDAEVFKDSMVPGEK
Protocol: In the present invention, use was made of a single channel recording method with the aid of a patch clamp technique (Hamill et al., Pfl gers Arch 391:85-100, 1981) in order to know whether lipoxygenase metabolites activate CAP channels or receptors or not. […] Because the tests are performed in isolated membrane patches without the mediation of intracellular second messengers, lipoxygenase metabolites are believed to exert a direct action on the CAP channel.
An examination was made on the efficiency with which the various lipoxygenase metabolites activate CAP channels. To this end, a patch clamp technique was used to record the single channel current generated in the CAP channel to which various lipoxygenase metabolites were applied to measure the open probability (Po) of the CAP channel. To compare the relative potency of each metabolite, the effects of the lipoxygenase metabolites on CAP channels were measured with a reference to 0.5 μM CAP.
A single channel current recording method using a patch clamp technique (Hamill et al., supra; Oh et al., 1996a) was used to know whether the lipoxygenase metabolites directly activate the CAP channel.
Because the binding site of CAP was located on the intracellular side of the channel (Oh et al., 1996b), the metabolites were applied to the intracellular sides of cell membrane patches.
In order to compare the agonistic potencies of the various metabolites synthesized by the action of various lipoxygenases, one patch was administered with 0.5 μM of CAP and then, with various lipoxygenase metabolites. At each experiment, the open probabilities (Po) of the channel attributable to the metabolites were recorded and calculated as a percentage to the open probability obtained at 0.5 μM CAP.
All of the lipoxygenase metabolites tested were administered at an amount of 10˜20 μM to the membrane patches of cultured sensory neurons. The relative potency of the metabolites in activating the channel was depicted in FIG. 7. As apparent from this histogram, almost all of the lipoxygenase metabolites, if different in agonistic potency, activate the CAP channel.
12-HPETE was administered at various concentrations from 0.25 to 20 μM to the cell membrane patches of sensory nerve cells, in order to plot a concentration-response curve. As a result, FIG. 8a was obtained. […] Returning now to FIG. 8a, the channel activation currents obtained at each 12-HPETE concentration were calculated as relative degrees to the channel activation current obtained at 20 μM of 12-HEPETE. The relative channel degrees were plotted against the concentrations of […] 12-HPETE and the resulting plot followed the Hill equation.

[2] = test system: sensory nerve fibers (c-fibers) of the skin; assay: skin-nerve preparation, action potentials of cutaneous pain nerve c-fibers; design: species or system rats
Protocol: To recognize whether the excitation of BK on nerve cells is accomplished via the arachidonic acid-lipoxygenase-CAP pathway, in vivo, a measurement was made on the action potentials in the sensory nerve fibers of the rats, as shown in FIGS. 13a and 13b. particularly, pain nerves which exist in the skin were isolated, together with a overlapping area of the skin, and the action potentials were measured from the nerve filaments using skin-nerve preparation (Reeh, 1998; Steen et al., 1992, 1995) as schematically illustrated in FIG. 13a. While unit action potentials measured at the sensory nerve fibers isolated from the skin, frequencies of the action potentials induced by the administration of BK were recorded. An increase in frequency of the action potentials means excitation of the sensory nerves.
The transmission speed of nerve signals were measured and only c-fibers (non-myelinated sensory nerve fibers) were used in the BK response experiment. The reason why c-fibers are used only is that they consist mainly of pain nerve cells (Willis and Coggeshall, 1991; Yaksh, 1986).
With reference to FIG. 13b, there are illustrated the action potential behaviors of the cutaneous pain nerve in response to agonist and antagonist samples. […] In order to recognize whether the nerve excitation of BK was attributed to the opening of CAP channels, CZP was administered at a dose of 10 μM, together with BK, to the skin. […] An experiment in which BK was administered alone or in combination with CZP to the skin, was repeated 20 times with the aim of testing the influence which BK and a combination of BK and CZP had on the activation of nerve cells, and the results are summarized as shown in FIG. 13c.
When the sensory nerve fibers were excited in response to BK, inhibitors against the enzymes required for the arachidonic acid-lipoxygenase-CAP receptor pathway were used in order to identify whether the response passed through the pathway. In the histogram of FIG. 14, the bar length of each inhibitor represents % activation relative to the activation effect obtained when BK was used alone in absence of any inhibitor. For example, CZP, if added along with BK, suppressed the activation response to BK by approximately […].

[3] = test system: cultured sensory nerve cells; assay: whole-cell currents in cultured sensory nerve cells in response to BK; type: cell-based; conditions: CZP 10 μM; 5 μM of BK
Description: When taking various experimental results previously obtained into account, it was inferred that BK has a possibility to open CAP channels through the arachidonic acid-lipoxygenase pathway. To confirm this inference, an examination was made regarding whether the currents generated in cultured sensory nerve sells in response to BK were diminished by CZP or other lipoxygenase inhibitors. If BK made CAP channel open via the arachidonic acid-lipoxygenase pathway, the current response to BK must be reduced by CZP. However, rarely did the cultured cells respond to BK.

CAP channel [4] = molecular target: T1, CAP channel; assay: single channel current recording with patch clamp technique, inside-out membrane patches of cultured sensory neurons; type: cell-based

Structure (SMILES): CCCCC/C=C\CC(/C=C/C=C\C/C=C\CCCC(=O)O)OO (centres unmarked) [12-HPETE, 12-hydroperoxyeicosatetraenoic acid]
- patches in which activation of CAP channels was detected (CAP channel [1]; 12-HPETE 2-20 μM, of the 97 patch samples tested): 88 patches
- Po channel open probability (CAP channel [1]; 12-HPETE alone, increased from 0.0, n=4): 0.019±0.0002
- reversal potential (CAP channel [1]; bi-ionic system 140 mM Na+ / 140 mM K+, 2~10 μM 12-HPETE): −1.71±0.49 mV
- permeability ratio of K+/Na+ (PK/PNa) (CAP channel [1]; calculated from bi-ionic system experiment): 1.1
- Hill coefficient (CAP channel [1]): 2.4
- amplitude of the single channel currents (CAP channel [1]): 2.68±0.012 pA
- relative agonistic potency (Po as percentage of Po at 0.5 μM CAP) (CAP channel [1]): most potent endogenous agonist; also recorded: highest agonistic potency

Structure (SMILES): COc1cc(CNC(=O)CCCC/C=C/C(C)C)ccc1O [CAP, capsaicin]
- generation of single channel currents (activation of CAP channel) (CAP channel [1]): single channel current which was greatly generated
- Hill coefficient (CAP channel [1]): 2.4
- amplitude of the single channel currents (CAP channel [1]): 2.72±0.06 pA
- action potentials of the nerve fibers (excitation) ([2]; administered to skin patch, BK 1 μM): largely increased action potentials

Structure (SMILES): Oc1cc2c(cc1O)CN(C(=S)NCCc1ccc(Cl)cc1)CCC2 [CZP, capsazepine]
- effect on single channel currents activated by 12-HPETE (CAP channel [1]; 10 μM of CZP present): single channel currents were not observed
- Po channel open probability (CAP channel [1]; co-existence of 10 μM of CZP and 10 μM of 12-HPETE): 0.001±0.000002
- effect on current generated by BK [3]: reduced the current
- effect on response of skin nerve to BK ([2]; CZP 10 μM together with BK): Great suppression

Structure (SMILES): COc1ccc2c(c1)c(CC(=O)O)c(C)n2C(=O)c1ccc(Cl)cc1 [INDO, indomethacin]
- effect on the BK response ([2]; 2 μM indomethacin): failed to inhibit the BK response

Structure (SMILES): CC(Cc1ccc(O)c(O)c1)C(C)Cc1ccc(O)c(O)c1 (centres unmarked) [NDGA, nordihydroguaiaretic acid]
- lowering of the activation of BK ([2]; 50 μM of NDGA, relative to BK alone): 70%
- effect on single channel current generated by arachidonic acid (CAP channel [4]; NDGA administered together with arachidonic acid): reversibly controlled depending on the presence or absence of NDGA

Structure (SMILES): CCCCC[C@H](O)/C=C/[C@H]1C(=O)C[C@H](O)[C@@H]1C/C=C\CCCC(=O)O [PGD2]
- generation of single channel currents (activation of CAP channel) (CAP channel [1]): no channel currents were generated

Structure (SMILES): CCCCC[C@H](O)/C=C/[C@H]1[C@H](O)CC(=O)[C@@H]1C/C=C\CCCC(=O)O [PGE2, prostaglandin E2]
- generation of single channel currents (activation of CAP channel) (CAP channel [1]): no channel currents were generated

Structure (SMILES): CCCCC[C@H](O)/C=C/[C@@H]1[C@H]2C/C(=C/CCCC(=O)O)O[C@H]2C[C@H]1O [PGI2]
- generation of single channel currents (activation of CAP channel) (CAP channel [1]): no channel currents were generated

Structure (SMILES): CCN(CC)CCCC(C)Nc1c2ccc(Cl)cc2nc2ccc(OC)cc12 (centres unmarked) [QN, Quinacrine]
- suppressive effect on the activation response to BK ([2]; relative to BK alone): 70%

Structure (SMILES): CCCCC/C=C\C/C=C\C/C=C\C/C=C\CCCC(=O)O [arachidonic acid]
- experiments in which channel currents were weakly induced (CAP channel [4]; arachidonic acid 10 to 50 μM): 54%
- experiments in which the CAP channels were not activated (CAP channel [4]; arachidonic acid 10 to 50 μM): approximately 46%
- trials in which the CAP channels were not activated (CAP channel [4]; arachidonic acid 10 to 50 μM, of 69 trials): 32 trials

Structure (SMILES): CCCCC/C=C\C[C@@H](O)/C=C/C=C/C=C\[C@@H](O)CCCC(=O)O [leukotriene B4]
- relative agonistic potency (Po as percentage of Po at 0.5 μM CAP) (CAP channel [1]): poor in the activation potency
